Test results reported in patent publication US9476087B2, “Methods and compounds for detecting beta-lactamase activity” (Nanyang Technological University, priority 2008, dated 2016).

How the values were obtained:
[1] = system: β-lactamase producing microorganisms; conditions: Hakimelahi et al. 2005; cited from earlier work
[2] = system: clinical isolate K. pneumoniae (ATCC 700603); assay: Nitrocefin colorimetric assay in living bacteria; format: cell-based; conditions: nitrocefin 8 μM
Procedure: (§1) FIG. 22 depicts a colorimetric measurement after mixing nitrocefin with different bacterial suspensions. 1: Nitrocefin solution (8 μM) only; 2: Nitrocefin (8 μM) mixed with wild type E. coli Bl21; 3: Nitrocefin (8 μM) mixed with β-lactam antibiotics resistant E. coli Bl21; 4: Nitrocefin (8 μM) mixed with clinical isolate K. pneumoniae (ATCC 700603) strains. […] There was no color difference between the Bla-encoded E. coli Bl21 and the K. pneumoniae strains.
(§2) Bacterial cells (˜10^8 cfu/mL) were suspended in 1 ml of PBS buffer (pH 7.4) which contained substrates under the room temperature. Nitrocefin solution (from Merck) was incubated with bacteria for further enzyme interactions. The final concentration was maintained at 8 μM, which was the same as the gold nanoparticles based enzymatic assay. After 20 mins interaction and followed by centrifugation, supernatant was applied for colorimetric image. The color change with different bacterial suspensions is depicted in FIG. 22.

[3] = system: β-lactam antibiotics resistant E. coli Bl21; assay: Nitrocefin colorimetric assay in living bacteria; format: cell-based; conditions: nitrocefin 8 μM
Procedure: as §1, §2

wild type E. coli Bl21 = assay: Nitrocefin colorimetric assay in living bacteria; format: cell-based; conditions: nitrocefin 8 μM
Procedure: as §1, §2

[4] = system: CC(=O)NC1C(=O)N2C(C(=O)O)=C(CSc3ccc(CC(=O)NCCOCCOCCN)cc3)CSC12; assay: purified protein, by the assay type; conditions: other: 25° C., PBS pH 7.4, β-lactamase 5.0 nM, absorbance change at 650 nm
Procedure: The kinetic measurements were carried out at 25° C. in PBS (phosphate buffered saline) buffer at pH 7.4. The absorbance change at 650 nm was measured by means of a UV spectrophotometer.
The rate of enhancement in absorbance at 650 nm was applied to determine the kinetic properties of enzyme hydrolysis. The values of the kinetic parameters (Km and Kcat) were determined from the double-reciprocal plot of the hydrolysis rate versus substrate concentrations (Lineweaver-Burk plot, based on the Michaelis-Menten model).
The kinetic experiments were carried out at 25° C. in PBS buffer with pH 7.4. The absorbance change at 650 nm was measured using a UV spectrophotometer. […] The rate of enhancement in absorbance at 650 nm was applied to determine the kinetic properties of enzyme hydrolysis. The 9 values of the kinetic parameters (Km and Kcat) were determined from the double-reciprocal plot of the hydrolysis rate versus substrate concentrations (Lineweaver-Burk plot).

For `COC(=O)C1=C(C(=O)OC(Cl)(Cl)C(Cl)(Cl)OC(=O)C2=C(c3ccccc3)C[C@@H]3[C@@H](NC(=O)Cc4ccccc4)C(=O)N23)N2C(=O)[C@@H](NC(=O)Cc3ccccc3)[C@H]2C1` (relative stereo) [(5R,6S)-rel-7-oxo-6-[(phenylacetyl)amino]-1-azabicyclo[3.2.0]hept-2-ene-2,3-dicarboxylic acid 3-methyl 2-[1,1,2,2-tetrachloro-2-[[[(5R,6R)-7-oxo-3-phenyl-6-[(phenylacetyl)amino]-1-azabicyclo[3.2.0]hept-2-en-2-yl]carbonyl]oxy]ethyl]ester], the “activity against β-lactamase producing microorganisms” value [1] is given as “excellent activity”.
With `O=C(Cc1cccs1)N[C@@H]1C(=O)N2C(C(=O)O)=C(/C=C/c3ccc([N+](=O)[O-])cc3[N+](=O)[O-])CS[C@H]12` [nitrocefin] the “color change of nitrocefin solution” value [2] was “color change from yellow to pink”, the “color change of nitrocefin solution” value [3] was “color change from yellow to pink” and the “color of nitrocefin solution” value (wild type E. coli Bl21) was “pink color was also detected”.
In the case of β-lactamase (Escherichia coli), the Km [4] is reported as 14.1 µM and the kcat [4] is reported as 22.7 s⁻¹.
